Tests used:
Assay in all cases: relative viability (nuclei count vs DMSO), 5 days (fraction); higher = more cells survive
SGI-1776 + Pictilisib = compound: CN1CCC(CNc2ccc3ncc(-c4cccc(OC(F)(F)F)c4)n3n2)CC1 [SGI-1776] + CS(=O)(=O)N1CCN(Cc2cc3nc(-c4cccc5[nH]ncc45)nc(N4CCOCC4)c3s2)CC1 [Pictilisib] (partner 1 µM)
In short: (§1)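 Dosing by pin tool came one day after lung cancer cell lines were seeded in 1536-well plates, using either one drug or a fixed anchor-drug dose plus five library-drug doses (not always all listed) in √10 steps. After 5 days, nuclei were counted on 4× images. Relative viability is treated-well nuclei count divided by vehicle-well nuclei count, and values are medians of duplicate plates.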

Entinostat + Alpelisib = compound: Nc1ccccc1NC(=O)c1ccc(CNC(=O)OCc2cccnc2)cc1 [Entinostat] + Cc1nc(NC(=O)N2CCC[C@H]2C(N)=O)sc1-c1ccnc(C(C)(C)C(F)(F)F)c1 [Alpelisib] (partner 2 µM)
In short: as §1

SGI-1776 + Foretinib = compound: CN1CCC(CNc2ccc3ncc(-c4cccc(OC(F)(F)F)c4)n3n2)CC1 [SGI-1776] + COc1cc2c(Oc3ccc(NC(=O)C4(C(=O)Nc5ccc(F)cc5)CC4)cc3F)ccnc2cc1OCCCN1CCOCC1 [Foretinib] (partner 0.25 µM)
In short: as §1

[1] = compound: C1COCCN1C2=NC(=NC3=C2OC4=C3C=CC=N4)C5=CC(=CC=C5)NC(=O)C6=CN=C(C=C6)N + Nc1nc2[nH]cc(CCc3ccc(C(=O)N[C@@H](CCC(=O)O)C(=O)O)cc3)c2c(=O)[nH]1 [Pemetrexed] (partner 0.2 µM)
In short: as §1

| Cell Line | relative viability (SGI-1776 + Pictilisib; first compound 0.08 µM) | relative viability (SGI-1776 + Pictilisib; first compound 0.8 µM) | relative viability (SGI-1776 + Pictilisib; first compound 2.53 µM) | relative viability (SGI-1776 + Pictilisib; first compound 8 µM) | relative viability (Entinostat + Alpelisib; first compound 0.02 µM) | relative viability (Entinostat + Alpelisib; first compound 0.06325 µM) | relative viability (Entinostat + Alpelisib; first compound 0.2 µM) | relative viability (Entinostat + Alpelisib; first compound 0.6325 µM) | relative viability (Entinostat + Alpelisib; first compound 2 µM) | relative viability (SGI-1776 + Foretinib; first compound 0.08 µM) | relative viability (SGI-1776 + Foretinib; first compound 0.8 µM) | relative viability (SGI-1776 + Foretinib; first compound 2.53 µM) | relative viability (SGI-1776 + Foretinib; first compound 8 µM) | relative viability ([1]; first compound 0.02 µM) | relative viability ([1]; first compound 0.06325 µM) | relative viability ([1]; first compound 0.2 µM) | relative viability ([1]; first compound 0.6325 µM) | relative viability ([1]; first compound 2 µM) |
| --- | --- | --- | --- | --- | --- | --- | --- | --- | --- | --- | --- | --- | --- | --- | --- | --- | --- | --- |
| HCC-366 | 0.158 | 0.192 | 0.137 | 0.0802 | 0.537 | 0.521 | 0.43 | 0.327 | 0.0475 | 0.907 | 0.963 | 0.961 | 0.392 | 0.186 | 0.189 | 0.195 | 0.219 | 0.0985 |
| HCC-827 | 1.02 | 1.21 | 1.09 | 0.877 | 0.836 | 0.848 | 0.607 | 0.532 | 0.359 | 1.04 | 1.13 | 1.09 | 0.647 | 0.249 | 0.284 | 0.262 | 0.278 | 0.265 |
| HOP-62 | 0.849 | 0.734 | 1.08 | 0.607 | 1.02 | 0.9 | 0.929 | 0.599 | 0.348 | 1.2 | 1.13 | 1.03 | 1.1 | 0.298 | 0.3 | 0.301 | 0.29 | 0.162 |
| IA-LM | 0.281 | 0.328 | 0.389 | 0.242 | 0.706 | 0.741 | 0.98 | 0.566 | 0.481 | 1.13 | 1.2 | 1.3 | 1.07 | – | – | – | – | – |
| LC-2-ad | 0.428 | 0.522 | 0.544 | 0.254 | 0.864 | 0.777 | 0.761 | 0.348 | 0.187 | 0.999 | 0.922 | 0.934 | 0.685 | 0.263 | 0.292 | 0.289 | 0.253 | 0.262 |
| LCLC-97TM1 | 0.25 | 0.296 | 0.196 | 0.179 | 0.262 | 0.224 | 0.245 | 0.225 | 0.156 | 0.932 | 0.952 | 0.945 | 0.829 | 0.199 | 0.195 | 0.181 | 0.203 | 0.2 |
| LCLC-103H | 0.752 | 0.608 | 0.554 | 0.45 | 1.04 | 1.09 | 0.894 | 0.783 | 0.571 | 0.88 | 0.705 | 0.748 | 0.637 | 0.466 | 0.435 | 0.444 | 0.465 | 0.419 |
| LK-2 | 0.504 | 0.563 | 0.47 | 0.308 | 1.1 | 1.03 | 1.04 | 0.692 | 0.421 | 1.26 | 1.23 | 1.35 | 0.682 | 0.291 | 0.238 | 0.284 | 0.208 | 0.24 |
| LOU-NH91 | 0.565 | 0.55 | 0.505 | 0.504 | 0.701 | 0.747 | 0.718 | 0.592 | 0.605 | 1.06 | 0.893 | 0.926 | 0.762 | 0.353 | 0.363 | 0.349 | 0.337 | 0.456 |
| LU99A | 0.29 | 0.339 | 0.309 | 0.28 | 0.517 | 0.5 | 0.546 | 0.418 | 0.324 | 0.868 | 0.8 | 0.784 | 0.41 | 0.204 | 0.183 | 0.223 | 0.184 | 0.178 |
| LXF-289 | 0.699 | 0.837 | 0.806 | 0.67 | 1.01 | 1.02 | 0.931 | 0.808 | 0.588 | 0.98 | 0.974 | 1.01 | 0.971 | 0.945 | 1 | 0.873 | 0.923 | 0.647 |
| NCI-H23 | 0.558 | 0.448 | 0.449 | 0.387 | 0.773 | 0.666 | 0.82 | 0.674 | 0.364 | 0.969 | 0.932 | 0.781 | 0.333 | 0.836 | 0.721 | 0.529 | 0.493 | 0.344 |
| NCI-H522 | – | – | – | – | – | – | – | – | – | – | – | – | – | 0.915 | 0.966 | 0.941 | 0.972 | 0.963 |
| NCI-H727 | 0.398 | 0.626 | 0.376 | 0.285 | 0.708 | 0.669 | 0.545 | 0.264 | 0.297 | 0.988 | 0.971 | 0.926 | 0.671 | – | – | – | – | – |
| NCI-H1299 | 0.821 | 0.832 | 0.596 | 0.505 | 1.09 | 1.02 | 1.06 | 0.883 | 0.815 | 1.08 | 1.11 | 1.07 | 1.01 | – | – | – | – | – |
| NCI-H1623 | – | – | – | – | – | – | – | – | – | 0.984 | 0.859 | 0.893 | 0.901 | – | – | – | – | – |
| NCI-H1648 | – | – | – | – | – | – | – | – | – | – | – | – | – | 0.743 | 0.893 | 0.819 | 0.754 | 0.554 |
| NCI-H1650 | 0.586 | 0.542 | 0.355 | 0.146 | – | – | – | – | – | 1.02 | 0.974 | 0.729 | 0.447 | 0.391 | 0.384 | 0.377 | 0.376 | 0.3 |
| NCI-H1703 | 0.242 | 0.22 | 0.251 | 0.181 | 0.41 | 0.413 | 0.522 | 0.504 | 0.428 | 0.403 | 0.322 | 0.291 | 0.282 | – | – | – | – | – |
| NCI-H1792 | 0.282 | 0.264 | 0.284 | 0.231 | 0.752 | 0.673 | 0.543 | 0.381 | 0.223 | – | – | – | – | 1.02 | 0.924 | 0.586 | 0.638 | 0.276 |
| NCI-H2342 | – | – | – | – | – | – | – | – | – | 1.22 | 1.07 | 1.04 | 1.04 | 0.839 | 0.739 | 0.753 | 0.796 | 0.713 |
| SW 900 | – | – | – | – | – | – | – | – | – | 1.05 | 1.12 | 0.9 | 0.817 | 0.497 | 0.476 | 0.455 | 0.469 | 0.254 |

From the supplement of paper PMC10307832
